Data: ChEMBL document CHEMBL1795312, “Insights into the structural requirements of farnesyltransferase inhibitors as potential anti-tumor agents based on 3D-QSAR CoMFA and CoMSIA models” (Eur J Med Chem, 2008)

Assay: Inhibition of farnesyltransferase

Compound	pIC50
Cc1ccccc1-c1cc(C(OCc2ccccc2Cl)c2cncn2C)ccc1C#N (stereo not drawn)	7.31
Cn1cncc1C(OCc1ccc(C(F)(F)F)c(F)c1)c1ccc(C#N)c(-c2ccccc2C(F)(F)F)c1 (stereo not drawn)	8.21
COc1cccc(-c2cc(C#N)ccc2COCc2cncn2Cc2ccc(C#N)nc2)c1	8.82
N#Cc1ccc(Cn2cncc2CN(c2ccccn2)C2CCN(Cc3ccccc3)C2=O)cc1 (stereo not drawn)	7.28
CCOc1cccc(-c2cc(C#N)ccc2COCc2cncn2Cc2ccc(C#N)nc2)c1	9.23
Cc1ccccc1-c1cc(C(OCc2cccc(I)c2)c2cncn2C)ccc1C#N (stereo not drawn)	7.69
Cc1ccccc1-c1cc(C(OCc2cc(Cl)nc(Cl)c2)c2cncn2C)ccc1C#N (stereo not drawn)	7.88
Cn1cncc1C(OCc1ccc(C#N)c(NCCc2ccccc2)n1)c1ccc(C#N)c(-c2ccccc2C(F)(F)F)c1 (stereo not drawn)	8.04
N#Cc1ccc(Cn2cncc2COc2ccc(C#N)c(-c3cccc4ccccc34)c2)cc1	9.42
N#Cc1ccc(Cn2cncc2CNC2CCN(C(=O)c3cncc(Br)c3)C2=O)cc1 (stereo not drawn)	7.37
Cc1ccccc1-c1cc(C(OCc2ccc(OC(F)(F)F)cc2)c2cncn2C)ccc1C#N (stereo not drawn)	7.79
CCOc1cccc(-c2cc(C#N)ccc2COCc2cncn2Cc2ccc(Cl)cc2)c1	8.85
Cn1cncc1C(OCc1ccc(C#N)c(N2CCC[C@@H]2C(=O)O)n1)c1ccc(C#N)c(-c2ccccc2C(F)(F)F)c1 (stereo partly drawn)	8.44
Cc1ccccc1-c1cc(C(OCc2ccc(I)cc2)c2cncn2C)ccc1C#N (stereo not drawn)	7.88
Cn1cncc1C(OCc1ccc(Cl)c(Cl)c1)c1ccc(C#N)c(-c2ccccc2C(F)(F)F)c1 (stereo not drawn)	8.76
Cn1cncc1C(OCc1ccc(C#N)cc1)c1ccc(C#N)c(-c2cccc(Cl)c2Cl)c1 (stereo not drawn)	8.82
Cc1ccccc1-c1cc(C(OCc2ccc(C(F)(F)F)cc2)c2cncn2C)ccc1C#N (stereo not drawn)	7.92
N#Cc1ccc(Cn2cncc2COCc2ccc(C#N)cc2-c2cccc(Cl)c2)cc1	9.43
N#Cc1ccc(Cn2cncc2CNC2CCN(c3cccnc3)C2=O)cc1 (stereo not drawn)	7.07
N#Cc1ccc(Cn2cncc2CNC2CCN(c3ccccc3Cl)C2=O)cc1 (stereo not drawn)	8.82
Cc1ccccc1-c1cc(C(OCc2ccc(Cl)cc2)c2cncn2C)ccc1C#N (stereo not drawn)	7.95
N#Cc1ccc(Cn2cncc2CNC2CCN(C(=O)c3cccnc3S)C2=O)cc1 (stereo not drawn)	5.54
Cc1ccc(COC(c2ccc(C#N)c(-c3ccccc3C)c2)c2cncn2C)cc1 (stereo not drawn)	7.26
Cc1ccccc1COC(c1ccc(C#N)c(-c2ccccc2C)c1)c1cncn1C (stereo not drawn)	7.26
Cc1ccccc1-c1cc(C(OCc2cccc(OC(F)(F)F)c2)c2cncn2C)ccc1C#N (stereo not drawn)	8.08
N#Cc1ccc(Cn2cncc2CNC2CCN(c3cccc(Cl)c3)C2=O)cc1 (stereo not drawn)	8.08
Cn1cncc1C(OCc1ccc(C#N)c(N2CCN(CCO)CC2)n1)c1ccc(C#N)c(-c2ccccc2C(F)(F)F)c1 (stereo not drawn)	8.88
COc1ncccc1C(=O)N1CCC(NCc2cncn2Cc2ccc(C#N)cc2)C1=O (stereo not drawn)	6.82
